Experimental data: patent US9540691B2, “Assays and methods for selecting a treatment regimen for a subject with depression” (THE GENERAL HOSPITAL CORPORATION, priority 2011, dated 2017)
Like-named read-outs stand apart in the source and are kept apart here.

System: MDD patients with at least one rare variant in an indicated SNP biomarker
Conditions: with an SSRI
[1] = COMT (Val 158) rs4633 (CC), 22(18, 9)
[2] = COMT (Val 158 Met) rs4680 (GG), 33(17, 9)
[3] = DAT (SLC6A3) rs250682 (CG), 33(33, 15)
[4] = DNMT38 rs1883729 (AG), 11(13, 8)
[5] = DNMT38 rs1883729 (AG), 11/13(32, 18)
[6] = DNMT38 rs1883729 (AG), 13(19, 10)
[7] = DRD2 (H313H) rs6275 (TT), 11(10, 5)
[8] = DRD2 (SLC26A9) rs11240594 (AG), 33(36, 20)
[9] = DRD2 (Taql Br) rs1079596 (TC), 42(18, 11)
[10] = DRD2 (Taql Br) rs1079596 (TC), 42/44(18, 11)
[11] = FDRC rs2277820 (TC), 22(30, 15)
[12] = GCHFR rs7163862 (TA), 41(37, 20)
[13] = GCHI rs8007267 (TC), 42(22, 10)
[14] = GCPH or FOLH1 rs202676 (AG), 31(23, 9)
[15] = MTHFD 1 G1958A (R653Q) rs2236225 (AG), 33(28, 16)
[16] = MTHFR G1793A rs2274976 (GA), 42(19, 5)
[17] = PCYT1A rs7639752 (AA), 11(12, 7)
[18] = RCF1 A > G rs2297291 (AA), 11(12, 7)
[19] = RCF2 (in SLC19A3) rs12659 (TT), 11(10, 7)
[20] = RCFI (in SLC19A1) rs1051266 (AA), 44(11, 6)

For `CN1c2c(nc(N)[nH]c2=O)NC[C@@H]1CNc1ccc(C(=O)N[C@@H](CCC(=O)O)C(=O)O)cc1` [6(S)-5-MTHF, 6(S)-5-methyltetrahydrofolate], the “EFFECT on change in HAMD-28, PHASE I” value [1] was −10.070, the “EFFECT on change in HAMD-28, PHASE II” value [1] was −10.170 and the “EFFECT on change in HAMD-28, POOLED PHASES” value [1] was −9.240. For the same compound, the “EFFECT on change in HAMD-28, PHASE I” value [2] was −12.070, the “EFFECT on change in HAMD-28, PHASE II” value [2] was −10.170 and the “EFFECT on change in HAMD-28, POOLED PHASES” value [2] was −10.880. The “EFFECT on change in HAMD-28, PHASE I” value [3] was −5.722, the “EFFECT on change in HAMD-28, PHASE II” value [3] was −5.768 and the “EFFECT on change in HAMD-28, POOLED PHASES” value [3] was −4.996. The “EFFECT on change in HAMD-28, PHASE I” value [4] was −2.318, the “EFFECT on change in HAMD-28, PHASE II” value [4] was −5.267 and the “EFFECT on change in HAMD-28, POOLED PHASES” value [4] was −4.811. The “EFFECT on change in HAMD-28, PHASE I” value [5] was −6.340, the “EFFECT on change in HAMD-28, PHASE II” value [5] was −4.940 and the “EFFECT on change in HAMD-28, POOLED PHASES” value [5] was −5.360. For the same compound, the “EFFECT on change in HAMD-28, PHASE I” value [6] was −8.097, the “EFFECT on change in HAMD-28, PHASE II” value [6] was −4.667 and the “EFFECT on change in HAMD-28, POOLED PHASES” value [6] was −6.748. For the same compound, the “EFFECT on change in HAMD-28, PHASE I” value [7] was −16.560, the “EFFECT on change in HAMD-28, PHASE II” value [7] was 1.667 and the “EFFECT on change in HAMD-28, POOLED PHASES” value [7] was −7.627. The “EFFECT on change in HAMD-28, PHASE I” value [8] was −5.018, the “EFFECT on change in HAMD-28, PHASE II” value [8] was −3.424 and the “EFFECT on change in HAMD-28, POOLED PHASES” value [8] was −3.758. For the same compound, the “EFFECT on change in HAMD-28, PHASE I” value [9] was −10.640, the “EFFECT on change in HAMD-28, PHASE II” value [9] was −3.893 and the “EFFECT on change in HAMD-28, POOLED PHASES” value [9] was −6.903. For the same compound, the “EFFECT on change in HAMD-28, PHASE I” value [10] was −10.640, the “EFFECT on change in HAMD-28, PHASE II” value [10] was −3.893 and the “EFFECT on change in HAMD-28, POOLED PHASES” value [10] was −6.903. The “EFFECT on change in HAMD-28, PHASE I” value [11] was −2.634, the “EFFECT on change in HAMD-28, PHASE II” value [11] was −6.232 and the “EFFECT on change in HAMD-28, POOLED PHASES” value [11] was −4.027. For the same compound, the “EFFECT on change in HAMD-28, PHASE I” value [12] was −6.380, the “EFFECT on change in HAMD-28, PHASE II” value [12] was −4.542 and the “EFFECT on change in HAMD-28, POOLED PHASES” value [12] was −4.863. The “EFFECT on change in HAMD-28, PHASE I” value [13] was −7.729, the “EFFECT on change in HAMD-28, PHASE II” value [13] was −5.417 and the “EFFECT on change in HAMD-28, POOLED PHASES” value [13] was −6.654. The “EFFECT on change in HAMD-28, PHASE I” value [14] was −7.314, the “EFFECT on change in HAMD-28, PHASE II” value [14] was −3.300 and the “EFFECT on change in HAMD-28, POOLED PHASES” value [14] was −5.402. For the same compound, the “EFFECT on change in HAMD-28, PHASE I” value [15] was −2.742, the “EFFECT on change in HAMD-28, PHASE II” value [15] was −3.762 and the “EFFECT on change in HAMD-28, POOLED PHASES” value [15] was −3.496. The “EFFECT on change in HAMD-28, PHASE I” value [16] was −5.333, the “EFFECT on change in HAMD-28, PHASE II” value [16] was 2.833 and the “EFFECT on change in HAMD-28, POOLED PHASES” value [16] was −5.551. The “EFFECT on change in HAMD-28, PHASE I” value [17] was −10.400, the “EFFECT on change in HAMD-28, PHASE II” value [17] was −3.900 and the “EFFECT on change in HAMD-28, POOLED PHASES” value [17] was −6.216. For the same compound, the “EFFECT on change in HAMD-28, PHASE I” value [18] was −8.778, the “EFFECT on change in HAMD-28, PHASE II” value [18] was −1.400 and the “EFFECT on change in HAMD-28, POOLED PHASES” value [18] was −5.458. For the same compound, the “EFFECT on change in HAMD-28, PHASE I” value [19] was −7.571, the “EFFECT on change in HAMD-28, PHASE II” value [19] was −1.400 and the “EFFECT on change in HAMD-28, POOLED PHASES” value [19] was −4.860. The “EFFECT on change in HAMD-28, PHASE I” value [20] was −10.000, the “EFFECT on change in HAMD-28, PHASE II” value [20] was −2.750 and the “EFFECT on change in HAMD-28, POOLED PHASES” value [20] was −7.673.
